According to patent US7071194B2, “Method for improving respiratory function and inhibiting muscular degeneration” (priority 2000, dated 2006):

Experiments:
Assay type in all cases: in vivo, rat
[1] = test system: T8 SCI rats; test: Respiratory function by head-out plethysmograph in conscious rats after T8 contusion SCI; conditions: p-MPPI 2 mg/kg i.p., dose titration experiments
[2] = test system: normal conscious rats; test: Respiratory function by head-out plethysmograph in normal conscious rats; conditions: p-MPPI 3 mg/kg i.p., n=3
Protocol: (§1) Experiments were conducted in unanesthetized, awake, spontaneously breathing rats at 24 hours prior to SCI, at 24 hours p.i. and weekly afterwards at 1,2,3, and 4 weeks p.i. (1) Acclimatization of the Animals. […] Animals were placed in the body cylinder of the plethysmograph (FIG. 1a) for 60 minutes per day for at least 5 days. […] (2) Non-Invasive Measurements of Respiratory Rate, Tidal Volume and Minute Ventilation. Non-invasive measurements of respiratory function in conscious rats were performed with a restrained head-out plethysmograph specially designed for rodents (BUXCO Electronics, Inc., Sharon, Conn.) (FIG. 1a). The plethymograph apparatus has a neck seal that prevents leakage of air from between the animal's neck and the plethymograph opening. Displacement of the thoracic wall produced by the animal's respiratory movements causes changes in the cylinder pressure, which results in air flowing across a pneumotachograph located on the wall of the cylinder. The pressure drop across the pneumotachograph is measured with a pressure transducer and is proportional to the flow. This signal is amplified and integrated into volume. From measurements of volume and flow, a computer and appropriate software provides respiratory parameters, such as respiratory rate (f), tidal volume (Vt), minute ventilation (Ve), peak inspiratory flow, peak expiratory flow, inspiratory time (Ti), expiratory time (Te), and accumulated volume. An additional opening on the wall of the box allows volume calibration by injecting and removing air from the box with a calibrated syringe.
(§2) The noise level in the laboratory was kept to a minimum in order not to startle the animals. Further, the animals were visually isolated from the investigators by means of a chamber made of an opaque material that surrounded and covered the front-end of the body plethysmograph (FIG. 1b). Baseline recordings lasted for 4 minutes. (3) Measurement of Ventilatory Response to Carbon Dioxide. For measurement of the ventilatory response to CO2, animals were exposed to air containing 7% CO2. The animals breathed from a funnel fixed in the front wall of a chamber made of an opaque material (FIG. 1b). The animals were exposed to the gas mixture containing 7% CO2 (mixed with 60% O2 and 33% N2) for 5 minutes with recording of respiratory activity for another 2 minutes (a total recording duration of 7 minutes).
(§3) The 5HT1A receptor antagonist, p-MPPI (RBI, Natick, Mass.) was also dissolved in 0.9% saline and given i.p. in a dose of 3 mg/kg (pH 7.4 and final volume of 0.5 ml). […] Vehicle solution (VEH) was 0.9% saline and also injected at i.p. (pH 7.4; volume: 0.5 ml/rat).

[3] = test system: T8 SCI rats; test: Respiratory function by head-out plethysmograph in conscious rats after T8 contusion SCI; conditions: for Te (expiratory time) / Ti (inspiratory time) / Tv (tidal volume) / Ve (minute ventilation) / f (respiratory rate): 24 hours post SCI, baseline (room air), rats 360-390 g
Protocol: Female Sprague-Dawley rats (250–280 g and 360–390 g; Taconic, Germantown, N.Y.) were anesthetized with 4% chloral hydrate (360 mg/kg, i.p.). An incomplete spinal courd contusion injury was produced at T8 with a weight drop device (10 g×2.5 cm) as previously described (Wrathall et al., 1985). After SCI, manual expression of bladders was performed twice daily until a reflex bladder was established. Animal care also included housing the rats in pairs to reduce isolation-induced stress, maintaining ambient temperature at 22–25° C., and using highly absorbent bedding. No prophylactic antibiotics were given.
as §1, §2, §3
Baseline respiratory function was measured under room air ventilation and after the animal was stabilized inside a boy cylinder (FIGS. 1a and b) for 30 minutes at each time point prior to SCI and after injury. Immediately following the evaluation of baseline respiration, the animals were let to breathe air containing 7% CO2 for 7 minutes to monitor their ventilatory response to CO2 stimulus (Teng et al., 1998a and 1999).

[4] = 24 hours p.i., p-MPPI 3 mg/kg i.p. 20 minutes before 8-OH-DPAT
[5] = 3 & 4 min post p-MPPI 3 mg/kg i.p.
[6] = 19 & 20 min post p-MPPI 3 mg/kg i.p.

SMILES: COc1ccccc1N1CCN(CCN(C(=O)c2ccc(I)cc2)c2ccccn2)CC1 [p-MPPI, 4-(2′-methoxyphenyl)-1-[2′-[N-(2″-pyridinyl)-p-iodobenzamido]ethyl]piperazine]
- block of stimulating effects of 8-OH-DPAT on respiratory function [1]: substantially block
- effect of p-MPPI per se on respiratory function [2]: No significant impacts
- effect of pre-treatment on 8-OH-DPAT effects on respiration [3, 4]: significantly suppressed
- effect of pre-treatment on 8-OH-DPAT stimulation of ventilatory response to 7% CO2 [3, 4]: significantly blocked
- Te (expiratory time) [3, 5]: 0.28 ± 0.02↓
- Ti (inspiratory time) [3, 5]: 0.33 ± 0.01
- Tv (tidal volume) [3, 5]: 0.75 ± 0.08↓ ml
- Ve (minute ventilation) [3, 5]: 76.9 ± 4.6↓ ml/min
- f (respiratory rate) [3, 5]: 103.2 ± 5.4↑ breaths/min
- Te (expiratory time) [3, 6]: 0.54 ± 0.10
- Ti (inspiratory time) [3, 6]: 0.28 ± 0.04
- Tv (tidal volume) [3, 6]: 0.77 ± 0.08↓ ml
- Ve (minute ventilation) [3, 6]: 57.8 ± 4.1↓ ml/min
- f (respiratory rate) [3, 6]: 76.2 ± 7.7 breaths/min
